Values quoted from earlier work, collected in patent publication US20130001095A1, “METHOD OF PRODUCING COUPLED RADICAL PRODUCTS” (priority 2009, published 2013).

O=C([O-])CCCC(=O)[O-].[Na+].[Na+] [Sodium glutarate]
solubility in methanol (methanol): not soluble | solubility in water (water): soluble
